Assay results published in patent US20240383906A1, “5-SUBSTITUTED PYRIDINE-2(1H)-KETONE COMPOUND AND USE THEREOF” (JIANGSU KANION PHARMACEUTICAL CO., LTD., priority 2021, published 2024).
Where two headings read alike, the source gives them in different places.

How the values were obtained:
[1] = system: WNT pathway STF reporter gene; assay: Super-Top-Flash (STF) reporter gene inhibitory activity test; type: cell-based; details: HEK293 STF and L wnt3A cells 1:1, 24 hours, Bright-Glo
Description: HEK293 STF and L wnt3A cells were provided by Wuhan Heyan Biomedical Technology Co., Ltd., and Bright Glo was purchased from Promega.
• HEK293 STF and L wnt3A cells were seeded in a white 96-well plate at a ratio of 1:1, with 80 μL of cell suspension per well, each containing 20,000 HEK293 STF cells and 20,000 L wnt3A cells. The cell plate was placed in a carbon dioxide incubator for overnight culture.
The test compounds were 5-fold diluted with a multi-channel pipette to the 8th concentration, i.e., diluted from 400 μM to 5.12 nM, and duplicate experiment was set. 78 μL of culture medium was added to an intermediate plate, and then 2 μL of gradient diluted compound per well was transferred to the intermediate plate according to the corresponding position. After mixing well, the compound was transferred to the cell plate at 20 μL per well. The cell plate was placed in a carbon dioxide incubator and cultured for 24 hours.
100 μL of Promega Bright-Glo reagent was added to each well of the cell plate, and it was incubated at room temperature for 10 minutes to stabilize the luminescent signal. A multimode microplate reader was used for reading.
Using the raw data from the multimode microplate reader, the IC50 value could be obtained through curve fitting. Table 10 provides the data on the inhibitory activity of the compounds of the present disclosure on the Wnt signaling pathway.

[2] = Toxicological evaluation (with toxicokinetics) of rats administered for 21 consecutive days; details: SD, rat, in vivo, po
Description: • SD rats (male and female, 7 to 8 weeks old, Zhejiang Vital River Laboratory Animal Technology Co., Ltd.).
• In this experiment, SD rats were administered orally once a day with a test substance, a candidate drug for treating cancer, for 21 days to detect its potential toxicity. At the same time, the toxicokinetic (TK) characteristics of the compound in the animals were examined.
126 rats (63 per gender) were divided into 6 groups. In the main test administration groups, each group had 5 males and 5 females. In the TK test control group, there were 3 males and 3 females. In the administration groups, each group had 6 males and 6 females. The compound was administered once a day at doses of 1, 3, 10, 20 milligrams per kilogram per day (mg/kg/day). The control group was only given the solvent. The volume of administration was 10 mL/kg. At the start of administration, the animals were 7 to 8 weeks old, with male weights ranging from 251.11 to 308.11 grams, and female weights from 181.53 to 219.03 grams.
The evaluation items include mortality (moribund/death), clinical symptoms, body weight, food consumption, clinical pathology (hematology, serum biochemistry, coagulation), gross (necropsy) evaluation, organ weights, histopathological evaluation, and toxicokinetics. The toxicokinetic parameters include peak concentration (Cmax), time to maximum drug concentration (Tmax), and area under the drug-time curve (AUC0-last).

[3] = female, 1 mg/kg/day, female, oral 1 mg/kg/day, Day 1
[4] = female, 1 mg/kg/day, female, oral 1 mg/kg/day, Day 21
[5] = female, 3 mg/kg/day, female, oral 3 mg/kg/day, Day 1
[6] = female, 3 mg/kg/day, female, oral 3 mg/kg/day, Day 21
[7] = female, 10 mg/kg/day, female, oral 10 mg/kg/day, Day 1
[8] = female, 10 mg/kg/day, female, oral 10 mg/kg/day, Day 21
[9] = female, 20 mg/kg/day, female, oral 20 mg/kg/day, Day 1
[10] = female, 20 mg/kg/day, female, oral 20 mg/kg/day, Day 21
[11] = male, 1 mg/kg/day, male, oral 1 mg/kg/day, Day 1
[12] = male, 1 mg/kg/day, male, oral 1 mg/kg/day, Day 21
[13] = male, 3 mg/kg/day, male, oral 3 mg/kg/day, Day 1
[14] = male, 3 mg/kg/day, male, oral 3 mg/kg/day, Day 21
[15] = male, 10 mg/kg/day, male, oral 10 mg/kg/day, Day 1
[16] = male, 10 mg/kg/day, male, oral 10 mg/kg/day, Day 21
[17] = male, 20 mg/kg/day, male, oral 20 mg/kg/day, Day 1
[18] = male, 20 mg/kg/day, male, oral 20 mg/kg/day, Day 21

With `Cn1cc(-c2cnc(CNc3nccn4c(-c5cc(F)cc(F)c5)cnc34)cn2)ccc1=O` [Compound 2] the IC50 [1] was 0.23 nM, the Cmax [2, 3] was 1.02 µM and the Tmax [2, 3] was 4 h. It also gave an AUC(0-t) ([2]; female, 1 mg/kg/day, female, oral 1 mg/kg/day, Day 1, read-out: AUC0-24 h) of 14.5 µM·h, a Cmax [2, 4] of 1.58 µM and a Tmax [2, 4] of 8 h. The AUC(0-t) ([2]; female, 1 mg/kg/day, female, oral 1 mg/kg/day, Day 21, read-out: AUC0-24 h) was 25.6 µM·h, the Cmax [2, 5] was 2.27 µM and the Tmax [2, 5] was 8 h. The AUC(0-t) ([2]; female, 3 mg/kg/day, female, oral 3 mg/kg/day, Day 1, read-out: AUC0-24 h) was 33.2 µM·h, the Cmax [2, 6] was 4.18 µM and the Tmax [2, 6] was 8 h. It also gave an AUC(0-t) ([2]; female, 3 mg/kg/day, female, oral 3 mg/kg/day, Day 21, read-out: AUC0-24 h) of 63.8 µM·h, a Cmax [2, 7] of 3.93 µM and a Tmax [2, 7] of 4 h. The AUC(0-t) ([2]; female, 10 mg/kg/day, female, oral 10 mg/kg/day, Day 1, read-out: AUC0-24 h) was 77.7 µM·h, the Cmax [2, 8] was 8.8 µM and the Tmax [2, 8] was 8 h. The AUC(0-t) ([2]; female, 10 mg/kg/day, female, oral 10 mg/kg/day, Day 21, read-out: AUC0-24 h) was 144 µM·h, the Cmax [2, 9] was 6.17 µM and the Tmax [2, 9] was 8 h. The AUC(0-t) ([2]; female, 20 mg/kg/day, female, oral 20 mg/kg/day, Day 1, read-out: AUC0-24 h) was 101 µM·h, the Cmax [2, 10] was 10.3 µM and the Tmax [2, 10] was 8 h. It also gave an AUC(0-t) ([2]; female, 20 mg/kg/day, female, oral 20 mg/kg/day, Day 21, read-out: AUC0-24 h) of 179 µM·h, a Cmax [2, 11] of 0.97 µM and a Tmax [2, 11] of 8 h. For the same compound, the AUC(0-t) ([2]; male, 1 mg/kg/day, male, oral 1 mg/kg/day, Day 1, read-out: AUC0-24 h) was 12.5 µM·h, the Cmax [2, 12] was 1.62 µM and the Tmax [2, 12] was 8 h. The AUC(0-t) ([2]; male, 1 mg/kg/day, male, oral 1 mg/kg/day, Day 21, read-out: AUC0-24 h) was 22.4 µM·h, the Cmax [2, 13] was 1.88 µM and the Tmax [2, 13] was 8 h. For the same compound, the AUC(0-t) ([2]; male, 3 mg/kg/day, male, oral 3 mg/kg/day, Day 1, read-out: AUC0-24 h) was 23.1 µM·h, the Cmax [2, 14] was 3.5 µM and the Tmax [2, 14] was 8 h. It also gave an AUC(0-t) ([2]; male, 3 mg/kg/day, male, oral 3 mg/kg/day, Day 21, read-out: AUC0-24 h) of 50.1 µM·h, a Cmax [2, 15] of 2.96 µM and a Tmax [2, 15] of 4 h. It also gave an AUC(0-t) ([2]; male, 10 mg/kg/day, male, oral 10 mg/kg/day, Day 1, read-out: AUC0-24 h) of 47.4 µM·h, a Cmax [2, 16] of 6.87 µM and a Tmax [2, 16] of 8 h. The AUC(0-t) ([2]; male, 10 mg/kg/day, male, oral 10 mg/kg/day, Day 21, read-out: AUC0-24 h) was 110 µM·h, the Cmax [2, 17] was 4.24 µM and the Tmax [2, 17] was 8 h. It also gave an AUC(0-t) ([2]; male, 20 mg/kg/day, male, oral 20 mg/kg/day, Day 1, read-out: AUC0-24 h) of 76.6 µM·h, a Cmax [2, 18] of 7.34 µM and a Tmax [2, 18] of 8 h. It also gave an AUC(0-t) ([2]; male, 20 mg/kg/day, male, oral 20 mg/kg/day, Day 21, read-out: AUC0-24 h) of 123 µM·h.
